Data as given in patent US10875876B2, “Cyclized sulfamoylarylamide derivatives and the use thereof as medicaments for the treatment of hepatitis B” (priority 2015, dated 2020).
Read-outs that look alike come from different tables or passages of the source.

How the values were obtained:
[1] = Cytotoxicity in HepG2 cells, Resazurin assay; conditions: human, HepG2 cells, TOX-HepG2-4 d CC50 (μM), HepG2 cells incubated for 4 days, viability by Resazurin assay
HBV = test: anti HBV activity, HepG2.117 cell line, intracellular HBV DNA by realtime PCR; type: cell-based; conditions: HepG2.117 cell line (Tet-off), 3 days of treatment, intracellular HBV DNA quantified by realtime PCR, read-out: HBV-AVE-HepG2.117 EC50
Procedure: The anti HBV activity was measured using the HepG2.117 cell line, a stable, inducibly HBV producing cell line, which replicates HBV in the absence of doxicycline (Tet-off system). For the antiviral assay, HBV replication was induced, followed by a treatment with serially diluted compound in 96-well plates in duplicate. After 3 days of treatment, the antiviral activity was determined by quantification of intracellular HBV DNA using realtime PCR and an HBV specific primer set and probe.

[2] = Hepatitis B virus, HepG2.117, 72 h

Row | SMILES | CC50 at 4 days [1] [µM] | EC50 (HBV; [2]) [nM] | EC50 (HBV) [nM]
1 | C[C@H](O)[C@H]1CCc2c(cn(C)c2C(=O)Nc2ccc(F)c(F)c2)S(=O)(=O)N1 [Compound 88, (3R)—N-(3,4-difluorophenyl)-3-[(1S)-1-hydroxyethyl]-7-methyl-1,1-dioxo-2,3,4,5-tetrahydropyrrolo[3,4-f]thiazepine-6-carboxamide] | > 25 | 11 | 
2 | Cn1cc2c(c1C(=O)Nc1ccc(F)c(C(F)F)c1)C=CC1(COC1)NS2(=O)=O [Compound 139, N-[3-(difluoromethyl)-4-fluoro-phenyl]-7-methyl-1,1-dioxo-spiro[2H-pyrrolo[3,4-f]thiazepine-3,3′-oxetane]-6-carboxamide] | > 25 | 16 | 
3 | CC[C@H](C)[C@H]1COc2c(cn(C)c2C(=O)Nc2ccc(F)c(F)c2)S(=O)(=O)N1 [Compound 23, (3 S)—N-(3,4-difluorophenyl)-7-methyl-3-[(1S)-1-methylpropyl]-1,1-dioxo-3,4-dihydro-2H-pyrrolo[3,4-b][1,4,5]oxathiazepine-6-carboxamide] | 10.6 | 5 | 
4 | C[C@H](O)[C@H]1COc2c(cn(C)c2C(=O)Nc2ccc(F)c(C(F)F)c2)S(=O)(=O)N1 [Compound 64, (3R)—N-[3-(difluoromethyl)-4-fluoro-phenyl]-3-[(1S)-1-hydroxyethyl]-7-methyl-1,1-dioxo-3,4-dihydro-2H-pyrrolo[3,4-b][1,4,5]oxathiazepine-6-carb oxamide] | > 25 | 8 | 
5 | Cc1cc(NC(=O)c2c3c(cn2C)S(=O)(=O)N[C@@H](C(C)(C)O)CO3)ccc1F [Compound 195, (3R)—N-(4-fluoro-3-methyl-phenyl)-3-(1-hydroxy-1-methyl-ethyl)-7-methyl-1,1-dioxo-3,4-dihydro-2H-pyrrolo[3,4-b][1,4,5]oxathiazepine-6-carboxamide] | > 25 | 7 | 
6 | CC1CCc2c(nn(C)c2C(=O)Nc2ccc(F)c(F)c2)S(=O)(=O)N1 (stereo not drawn) [compound 246] | > 25 | > 130 | 
7 | C[C@H](O)[C@H]1C=Cc2c(cn(C)c2C(=O)Nc2ccc(F)c(C(F)F)c2F)S(=O)(=O)N1 [Compound 186, (3R)—N-[3-(difluoromethyl)-2,4-difluoro-phenyl]-3-[(1S)-1-hydroxyethyl]-7-methyl-1,1-dioxo-2,3-dihydropyrrolo[3,4-f]thiazepine-6-carboxamide] | > 25 | 11 | 
8 | Cc1cccc(C2(C)COc3c(cn(C)c3C(=O)Nc3ccc(F)c(F)c3)S(=O)(=O)N2)n1 (racemic) [Compound 168, N-(3,4-difluorophenyl)-3,7-dimethyl-3-(6-methyl-2-pyridyl)-1,1-dioxo-2,4-dihydropyrrolo[3,4-b][1,4,5]oxathiazepine-6-carboxamide] | > 25 | 25 | 
9 | Cn1cc2c(c1C(=O)Nc1cc(F)c(F)c(F)c1)CCC1(COC1)NS2(=O)=O [Compound 136, 7-methyl-1,1-dioxo-N-(3,4,5-trifluorophenyl)spiro[4,5-dihydro-2H-pyrrolo[3,4-f]thiazepine-3,3′-oxetane]-6-carboxamide] | > 25 | 16 | 
10 | C[C@H](O)[C@H]1CCc2c(cn(C)c2C(=O)Nc2ccnc(Br)c2)S(=O)(=O)N1 [Compound 111, (3R)—N-(2-bromo-4-pyridyl)-3-[(1S)-1-hydroxyethyl]-7-methyl-1,1-dioxo-2,3,4,5-tetrahydropyrrolo[3,4-f]thiazepine-6-carboxamide] | > 25 | 89 | 
11 | CC1C=Cc2c(cn(C)c2C(=O)Nc2ccc(F)c(F)c2)S(=O)(=O)N1C (stereo not drawn) [Compound 18, N-(3,4-difluorophenyl)-2,3,7-trimethyl-1,1-dioxo-3H-pyrrolo-[3,4-f]thiazepine-6-carboxamide] | > 25 | 710 | 
12 | CC(C)[C@H]1Oc2c(cn(C)c2C(=O)Nc2ccc(F)c(F)c2)S(=O)(=O)N[C@@H]1CO [compound 240] | > 25 | > 250 | 
13 | Cn1cc2c(c1C(=O)Nc1ccc(F)c(F)c1)OCC1(CCN(Cc3ccccc3)C1)NS2(=O)=O (stereo not drawn) [Compound 216, 1′-benzyl-N-(3,4-difluorophenyl)-7-methyl-1,1-dioxo-spiro[2,4-dihydropyrrolo[3,4-b][1,4,5]oxathiazepine-3,3′-pyrrolidine]-6-carboxamide] | > 25 | 34 | 
14 | Cn1cc2c(c1C(=O)Nc1ccc(F)c(C#N)c1)OCC(C)(CO)NS2(=O)=O (single isomer, unassigned) [Compound 210a, N-(3-cyano-4-fluoro-phenyl)-3-(hydroxymethyl)-3,7-dimethyl-1,1-dioxo-2,4-dihydropyrrolo[3,4-b][1,4,5]oxathiazepine-6-carboxamide] | > 25 | 37 | 
15 | C[C@H]1CCc2c(cn(C)c2C(=O)Nc2ccnc(C(F)F)c2)S(=O)(=O)N1 [Compound 165, (3S)—N-[2-(difluoromethyl)-4-pyridyl]-3,7-dimethyl-1,1-dioxo-2,3,4,5-tetrahydropyrrolo[3,4-f]thiazepine-6-carboxamide] | > 25 | 68 | 
16 | Cn1cc2c(c1C(=O)Nc1ccc(F)c(C#N)c1)C=CC1(COC1)NS2(=O)=O [Compound 140, N-(3-cyano-4-fluoro-phenyl)-7-methyl-1,1-dioxo-spiro[2H-pyrrolo-[3,4-f]thiazepine-3,3′-oxetane]-6-carboxamide] | > 25 | 62 | 
17 | Cc1cc(CC2(C)COc3c(cn(C)c3C(=O)Nc3ccnc(Cl)c3)S(=O)(=O)N2)no1 (single isomer, unassigned) [Compound 213a, N-(2-chloro-4-pyridyl)-3,7-dimethyl-3-[(5-methylisoxazol-3-yl)methyl]-1,1-dioxo-2,4-dihydropyrrolo[3,4-b][1,4,5]oxathiazepine-6-carboxamide] | > 25 |  | 48
18 | COCC1(CO)CCc2c(cn(C)c2C(=O)Nc2ccc(F)c(F)c2)S(=O)(=O)N1 (stereo not drawn) [Compound 202, N-(3,4-difluorophenyl)-3-(hydroxymethyl)-3-(methoxymethyl)-7-methyl-1,1-dioxo-4,5-dihydro-2H-pyrrolo[3,4-f]thiazepine-6-carboxamide] | > 25 | 25 | 
19 | CC1Cc2c(cn(C)c2C(=O)Nc2ccc(F)c(F)c2)S(=O)(=O)N1 (stereo not drawn) [Compound 11, N-(3,4-difluorophenyl)-3,6-dimethyl-1,1-dioxo-3,4-dihydro-2H-pyrrolo-[3,4-e]thiazine-5-carboxamide] | > 25 | 77 | 
20 | CC[C@@H]1COc2c(cn(C)c2C(=O)Nc2ccc(F)c(F)c2)S(=O)(=O)N1 [Compound 20, (3R)—N-(3,4-difluorophenyl)-3-ethyl-7-methyl-1,1-dioxo-3,4-dihydro-2H-pyrrolo[3,4-b][1,4,5]oxathiazepine-6-carboxamide] | > 25 | 58 | 
21 | Cn1cc2c(c1C(=O)Nc1ccc(F)c(F)c1)OC[C@](C)(Cc1ccccc1)NS2(=O)=O [Compound 155, (3S)-3-benzyl-N-(3,4-difluorophenyl)-3,7-dimethyl-1,1-dioxo-2,4-dihydropyrrolo[3,4-b][1,4,5]oxathiazepine-6-carboxamide] | > 25 | 25 | 
22 | Cn1cc2c(c1C(=O)Nc1ccc(F)c(F)c1)OCC(C)(c1cnccn1)NS2(=O)=O (racemic) [Compound 145, N-(3,4-difluorophenyl)-3,7-dimethyl-1,1-dioxo-3-pyrazin-2-yl-2,4-dihydropyrrolo[3,4-b][1,4,5]oxathiazepine-6-carboxamide] | > 25 | 37 | 
23 | CC(C)C1C=Cc2c(cn(C)c2C(=O)Nc2ccc(F)c(F)c2)S(=O)(=O)N1 (single isomer, unassigned) [Compound 79a, N-(3,4-difluorophenyl)-3-isopropyl-7-methyl-1,1-dioxo-2,3-dihydropyrrolo[3,4-f]thiazepine-6-carboxamide] | > 25 |  | 43
24 | CCC(O)[C@@H]1COc2c(cn(C)c2C(=O)Nc2ccc(F)c(C(F)F)c2)S(=O)(=O)N1 (single isomer, unassigned) [Compound 144a, N-[3-(difluoromethyl)-4-fluoro-phenyl]-3-(1-hydroxypropyl)-7-methyl-1,1-dioxo-3,4-dihydro-2H-pyrrolo[3,4-b][1,4,5]oxathiazepine-6-carboxamide] | > 25 |  | 19
25 | CC1NS(=O)(=O)c2cn(C)c(C(=O)Nc3ccc(F)c(F)c3)c2OC1C (stereo not drawn) [Compound 28, N-(3,4-difluorophenyl)-3,4,7-trimethyl-1,1-dioxo-3,4-dihydro-2H-pyrrolo[3,4-b][1,4,5]oxathiazepine-6-carboxamide] | > 25 | 890 | 
26 | Cn1cc2c(c1C(=O)Nc1ccc(F)c(C#N)c1F)CCC(C(C)(C)O)NS2(=O)=O (stereo not drawn) [Compound 185, N-(3-cyano-2,4-difluoro-phenyl)-3-(1-hydroxy-1-methyl-ethyl)-7-methyl-1,1-dioxo-2,3,4,5-tetrahydropyrrolo[3,4-f]thiazepine-6-carboxamide] | > 25 | 41 | 
27 | CC(C)C1CCc2c(cn(C)c2C(=O)Nc2ccc(F)c(C#N)c2)S(=O)(=O)N1 (stereo not drawn) [Compound 85, N-(3-cyano-4-fluoro-phenyl)-3-isopropyl-7-methyl-1,1-dioxo-2,3,4,5-tetrahydropyrrolo[3,4-f]thiazepine-6-carboxamide] | > 25 | 7 | 
